Measured values taken from ChEMBL document CHEMBL1201862, “PubChem BioAssay data set” (2004).
Active and inactive are the calls of the source.

Tests used:
[1] = Trypanosoma cruzi growth suppression in host cells – NIH3T3 host cells, beta-gal luminescence, confirmation (AID 2044); format: functional, cell-based;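 also: intracellular parasites grown in NIH/3T3 mouse fibroblasts as host cells; luminescent beta-galactosidase reporter signal from transgenic T. cruzi replicating inside host cells; inhibitors lower the luminescence signal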
[2] = NIH3T3 cell viability loss – ATP luminescence, mouse fibroblasts, counter-screen, dose response (AID 2010); format: functional, cell-based;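 also: cells exposed to compound for about 90 hours before reading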
cells [3] = format: functional, cell-based
[4] = target: T1, Trace amine-associated receptor 1 (Homo sapiens, UniProt Q96RJ0); assay: Fluorescence-based cell-based high throughput dose response assay to identify agonists of the human trace amine associated receptor 1 (TAAR1).; format: functional
T1 sequence (Q96RJ0 whole entry): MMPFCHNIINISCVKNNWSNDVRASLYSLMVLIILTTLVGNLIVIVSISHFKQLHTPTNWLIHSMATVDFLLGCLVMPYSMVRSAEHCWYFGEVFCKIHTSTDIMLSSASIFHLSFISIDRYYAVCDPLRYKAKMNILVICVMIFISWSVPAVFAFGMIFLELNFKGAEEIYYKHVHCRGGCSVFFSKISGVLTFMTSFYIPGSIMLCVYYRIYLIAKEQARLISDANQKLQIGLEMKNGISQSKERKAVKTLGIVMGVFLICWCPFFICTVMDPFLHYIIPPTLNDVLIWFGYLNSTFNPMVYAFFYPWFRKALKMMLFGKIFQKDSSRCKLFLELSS

[5] = target: T1, Trace amine-associated receptor 1; assay: Counterscreen for agonists of the human trace amine associated receptor 1 (hTAAR1): Fluorescence-based cell-based high throughput dose response assay to identify hTAAR1 agonist that also desensitize TAAR1 receptor response.; format: functional
cells [6] = format: functional, cell-based; remark: listed apart in the source
cells [7] = assay: cells
[8] = target: T2, Tyrosine-protein phosphatase non-receptor type 7 (Homo sapiens, UniProt P35236); assay: HePTP tyrosine phosphatase activity blockers – biochemical, absorbance, leukemia target, primary screen (AID 521); format: functional
T2 sequence (P35236 whole entry): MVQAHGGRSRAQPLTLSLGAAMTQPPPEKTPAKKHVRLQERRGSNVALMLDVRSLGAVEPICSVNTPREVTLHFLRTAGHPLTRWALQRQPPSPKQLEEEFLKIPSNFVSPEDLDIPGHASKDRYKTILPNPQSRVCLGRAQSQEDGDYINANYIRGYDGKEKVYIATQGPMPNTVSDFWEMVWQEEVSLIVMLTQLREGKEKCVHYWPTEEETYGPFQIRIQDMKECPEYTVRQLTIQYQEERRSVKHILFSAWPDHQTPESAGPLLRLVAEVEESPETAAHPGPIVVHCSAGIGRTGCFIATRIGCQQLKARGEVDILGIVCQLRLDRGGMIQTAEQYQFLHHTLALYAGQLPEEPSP

cells [9] = format: functional, cell-based; remark: listed apart in the source
cells [10] = format: functional, cell-based; remark: listed apart in the source
[11] = target: Mitogen-activated protein kinase 10 (Homo sapiens, UniProt P53779); assay: Dose response biochemical screening assay for inhibitors of c-Jun N-Terminal Kinase 3 (JNK3). [Related pubchem assays: 746 ]
Sequence of Mitogen-activated protein kinase 10 (P53779 whole entry): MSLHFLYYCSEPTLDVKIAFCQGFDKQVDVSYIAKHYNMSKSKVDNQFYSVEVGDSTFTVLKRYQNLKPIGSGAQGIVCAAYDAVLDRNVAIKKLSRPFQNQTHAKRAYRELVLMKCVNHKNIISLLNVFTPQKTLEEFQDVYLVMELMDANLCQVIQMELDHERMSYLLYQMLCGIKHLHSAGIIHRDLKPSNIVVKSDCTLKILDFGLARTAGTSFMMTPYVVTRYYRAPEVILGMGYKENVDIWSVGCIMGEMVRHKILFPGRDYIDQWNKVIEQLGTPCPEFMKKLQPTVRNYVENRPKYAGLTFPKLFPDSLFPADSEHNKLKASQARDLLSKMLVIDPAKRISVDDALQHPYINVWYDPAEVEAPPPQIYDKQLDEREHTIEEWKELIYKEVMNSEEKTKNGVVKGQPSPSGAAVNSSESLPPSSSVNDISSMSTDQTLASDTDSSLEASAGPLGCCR

BJ [12] = assay: BJ-TERT fibroblast viability loss – cell-based, RAS-independent, luminescence, dose response (AID 1933); format: functional; conditions: Homo sapiens
Vero [13] = assay: mammalian cell viability reduction – secondary assay, cytotoxicity control for West Nile virus antiviral project, dose response (AID 1650); format: functional; conditions: Chlorocebus sabaeus
BJ [14] = assay: cells; format: functional, cell-based; conditions: Homo sapiens
BJ [15] = assay: BJ-TERT-LT-ST fibroblast viability loss – cell-based, RAS-independent, luminescence, dose response (AID 1935); format: functional; conditions: Homo sapiens;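 also: BJ fibroblasts immortalized with TERT plus LT and ST oncogenes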
[16] = DRD fibroblast viability loss – cell-based, non-viral oncogenic, luminescence, dose response (AID 1934); format: functional; conditions: Homo sapiens
Vero [17] = assay: cells; format: functional, cell-based; conditions: Chlorocebus sabaeus
Vero [18] = assay: cells; format: functional; conditions: Chlorocebus sabaeus
Kallikrein-7 = Kallikrein-7 (Homo sapiens, UniProt P49862); assay: Fluorescence Intensity-based biochemical primary high throughput dose response assay to identify activators of kallikrein-7 (K7) zymogen.
Sequence of Kallikrein-7 (P49862 whole entry): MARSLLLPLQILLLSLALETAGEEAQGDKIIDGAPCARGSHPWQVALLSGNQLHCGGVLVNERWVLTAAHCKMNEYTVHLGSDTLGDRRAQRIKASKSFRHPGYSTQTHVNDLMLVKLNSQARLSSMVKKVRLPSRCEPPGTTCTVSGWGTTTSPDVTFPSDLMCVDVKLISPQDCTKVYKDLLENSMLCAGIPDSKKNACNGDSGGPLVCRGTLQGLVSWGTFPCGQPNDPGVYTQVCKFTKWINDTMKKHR

[19] = Luminescence Cell-Based Dose Response to Identify Activators of 5'UTR Stem-Loop Driven Prion Protein mRNA Translation in H4-C Neuroglioblastoma Cells. [Related pubchem assays: 1829 (Project Summary), 1814 (Primary HTS)]; format: functional
[20] = Luminescence Cell-Based Dose Response HTS to Identify Activators of Luciferase Translation or Activity in H4 […] Cells. [Related pubchem assays: 1829 (Project Summary), 1814 (Primary HTS)]; format: functional
[21] = Luminescence Cell-Based Dose Response to Identify Activators of Luciferase Translation or Activity in H4-C Neuroglioblastoma Cells. [Related pubchem assays: 1829 (Project Summary), 1814 (Primary HTS)]; format: functional
[22] = Luminescence Cell-Based Dose Confirmation to Identify Activators of 5'UTR Stem-Loop Driven Alpha-Synuclein mRNA Translation in H4 Neuroglioblastoma Cells. [Related pubchem assays: 1829 (Project Summary), 1814 (Primary HTS)]; format: functional
[23] = target: Peroxisome proliferator-activated receptor gamma/Nuclear receptor corepressor 2 (Homo sapiens, UniProt P37231+Q9Y618); assay: Counterscreen for NR2E3 inverse agonists: TR-FRET-based biochemical high throughput dose response assay to identify inverse agonists of the interaction between peroxisome proliferator-activated receptor gamma (PPARg) and nuclear receptor co-repressor 2 (NCOR2).; format: functional
Sequence of Peroxisome proliferator-activated receptor gamma/Nuclear receptor corepressor 2 (P37231 whole entry): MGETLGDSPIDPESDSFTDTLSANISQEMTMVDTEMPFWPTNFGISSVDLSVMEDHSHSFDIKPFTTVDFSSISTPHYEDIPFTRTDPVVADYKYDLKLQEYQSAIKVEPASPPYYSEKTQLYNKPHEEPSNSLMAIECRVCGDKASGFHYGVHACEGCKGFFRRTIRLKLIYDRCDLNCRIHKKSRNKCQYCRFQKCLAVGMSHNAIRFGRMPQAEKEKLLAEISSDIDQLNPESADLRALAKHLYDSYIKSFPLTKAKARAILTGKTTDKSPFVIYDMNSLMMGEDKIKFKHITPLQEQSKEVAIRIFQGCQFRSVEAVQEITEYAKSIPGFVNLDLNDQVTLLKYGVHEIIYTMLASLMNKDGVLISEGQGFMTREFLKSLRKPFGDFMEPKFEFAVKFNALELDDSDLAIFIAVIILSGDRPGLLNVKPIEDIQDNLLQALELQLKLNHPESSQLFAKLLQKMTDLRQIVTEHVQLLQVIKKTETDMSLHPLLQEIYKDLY
Sequence of Peroxisome proliferator-activated receptor gamma/Nuclear receptor corepressor 2 (Q9Y618 whole entry): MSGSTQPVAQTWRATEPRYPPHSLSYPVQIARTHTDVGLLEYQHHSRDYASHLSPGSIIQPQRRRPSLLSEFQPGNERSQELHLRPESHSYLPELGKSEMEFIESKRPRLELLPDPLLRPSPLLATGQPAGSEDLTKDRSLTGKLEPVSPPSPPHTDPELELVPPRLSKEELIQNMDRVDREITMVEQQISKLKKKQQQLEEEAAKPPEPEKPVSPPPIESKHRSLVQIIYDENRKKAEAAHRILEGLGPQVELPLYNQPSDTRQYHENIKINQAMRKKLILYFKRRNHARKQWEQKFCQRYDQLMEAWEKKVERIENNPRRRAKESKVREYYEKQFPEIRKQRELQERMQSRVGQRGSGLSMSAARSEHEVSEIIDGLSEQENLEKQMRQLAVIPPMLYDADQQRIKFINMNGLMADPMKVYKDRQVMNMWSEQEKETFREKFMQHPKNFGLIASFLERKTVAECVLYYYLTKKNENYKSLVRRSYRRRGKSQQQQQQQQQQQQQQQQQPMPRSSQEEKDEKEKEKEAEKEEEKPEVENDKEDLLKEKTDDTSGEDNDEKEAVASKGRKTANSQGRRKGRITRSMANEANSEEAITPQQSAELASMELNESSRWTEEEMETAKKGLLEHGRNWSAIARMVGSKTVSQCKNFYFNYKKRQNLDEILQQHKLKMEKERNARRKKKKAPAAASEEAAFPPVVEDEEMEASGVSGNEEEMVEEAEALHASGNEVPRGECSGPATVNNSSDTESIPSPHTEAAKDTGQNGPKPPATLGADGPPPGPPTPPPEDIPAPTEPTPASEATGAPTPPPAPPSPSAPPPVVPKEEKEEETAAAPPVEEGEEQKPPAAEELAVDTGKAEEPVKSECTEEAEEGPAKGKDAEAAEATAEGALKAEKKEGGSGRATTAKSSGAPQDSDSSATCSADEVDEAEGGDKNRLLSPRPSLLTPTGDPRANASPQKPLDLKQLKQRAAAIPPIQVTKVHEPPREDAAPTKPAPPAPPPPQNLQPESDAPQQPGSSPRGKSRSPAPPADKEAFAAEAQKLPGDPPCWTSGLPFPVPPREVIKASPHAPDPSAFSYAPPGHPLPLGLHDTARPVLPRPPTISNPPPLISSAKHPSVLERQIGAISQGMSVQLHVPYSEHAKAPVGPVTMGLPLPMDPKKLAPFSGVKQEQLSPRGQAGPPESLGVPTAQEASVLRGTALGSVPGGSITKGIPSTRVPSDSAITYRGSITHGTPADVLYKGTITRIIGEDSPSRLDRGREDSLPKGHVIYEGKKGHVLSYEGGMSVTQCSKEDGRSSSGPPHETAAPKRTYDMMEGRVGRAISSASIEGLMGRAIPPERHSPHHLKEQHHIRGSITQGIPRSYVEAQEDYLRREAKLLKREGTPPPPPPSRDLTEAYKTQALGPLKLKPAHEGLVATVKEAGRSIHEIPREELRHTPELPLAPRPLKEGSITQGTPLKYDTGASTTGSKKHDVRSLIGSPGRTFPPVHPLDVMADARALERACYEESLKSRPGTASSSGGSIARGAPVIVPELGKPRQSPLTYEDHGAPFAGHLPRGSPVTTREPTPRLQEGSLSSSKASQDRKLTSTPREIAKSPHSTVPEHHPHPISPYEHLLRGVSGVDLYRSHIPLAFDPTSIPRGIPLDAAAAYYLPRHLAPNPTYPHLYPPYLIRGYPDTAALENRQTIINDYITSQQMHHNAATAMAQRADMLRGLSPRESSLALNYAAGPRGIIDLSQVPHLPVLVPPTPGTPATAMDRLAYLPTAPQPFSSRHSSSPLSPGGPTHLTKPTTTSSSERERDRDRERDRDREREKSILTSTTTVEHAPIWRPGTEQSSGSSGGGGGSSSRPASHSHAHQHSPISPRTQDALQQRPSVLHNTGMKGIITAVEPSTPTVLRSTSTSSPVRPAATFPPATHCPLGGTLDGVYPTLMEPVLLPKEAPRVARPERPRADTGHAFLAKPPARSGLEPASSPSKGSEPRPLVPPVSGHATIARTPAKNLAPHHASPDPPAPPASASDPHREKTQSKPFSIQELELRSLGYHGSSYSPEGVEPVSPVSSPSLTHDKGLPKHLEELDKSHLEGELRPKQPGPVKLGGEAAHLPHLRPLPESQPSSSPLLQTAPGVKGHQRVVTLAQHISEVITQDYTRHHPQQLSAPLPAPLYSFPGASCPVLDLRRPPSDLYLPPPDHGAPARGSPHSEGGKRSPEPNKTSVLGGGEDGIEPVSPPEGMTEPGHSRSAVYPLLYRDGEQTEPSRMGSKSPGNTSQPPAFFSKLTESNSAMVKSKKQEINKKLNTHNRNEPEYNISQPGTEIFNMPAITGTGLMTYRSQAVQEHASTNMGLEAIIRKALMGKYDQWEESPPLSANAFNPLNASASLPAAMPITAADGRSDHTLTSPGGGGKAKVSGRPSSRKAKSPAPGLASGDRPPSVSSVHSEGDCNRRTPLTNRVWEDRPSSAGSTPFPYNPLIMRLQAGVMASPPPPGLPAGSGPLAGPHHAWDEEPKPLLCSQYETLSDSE

[24] = target: Photoreceptor-specific nuclear receptor (Homo sapiens, UniProt Q9Y5X4); assay: ligands suppressing NR2E3 nuclear receptor activity – biochemical, TR-FRET, dose response (AID 463256); format: functional
Sequence of Photoreceptor-specific nuclear receptor (Q9Y5X4 whole entry): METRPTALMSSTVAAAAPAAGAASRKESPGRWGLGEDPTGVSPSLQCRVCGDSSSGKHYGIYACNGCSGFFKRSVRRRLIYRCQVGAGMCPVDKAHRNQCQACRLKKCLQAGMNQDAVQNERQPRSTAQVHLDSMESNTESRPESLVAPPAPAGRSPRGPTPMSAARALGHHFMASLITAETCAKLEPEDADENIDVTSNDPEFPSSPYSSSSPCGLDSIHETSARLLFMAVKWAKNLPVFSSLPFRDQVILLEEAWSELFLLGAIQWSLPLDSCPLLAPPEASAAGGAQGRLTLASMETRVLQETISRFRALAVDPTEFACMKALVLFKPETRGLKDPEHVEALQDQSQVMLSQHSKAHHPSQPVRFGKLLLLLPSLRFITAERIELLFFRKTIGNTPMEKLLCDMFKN

Protein Tat = Protein Tat (Human immunodeficiency virus type 1 group M subtype B (isolate HXB2)(HIV-1), UniProt P04608); format: functional;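 also: tat binding to TAR RNA read out by fluorescence polarization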
Sequence of Protein Tat (P04608 whole entry): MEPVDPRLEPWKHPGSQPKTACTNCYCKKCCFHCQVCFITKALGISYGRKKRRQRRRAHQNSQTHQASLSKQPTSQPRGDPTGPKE

[25] = viability loss in THP-1 monocytes – THP-1 cells, cytotoxicity control for Vif-APOBEC3G degradation inhibitor project, dose response (AID 1117359); format: functional; conditions: THP-1
[26] = target: 26S proteasome non-ATPase regulatory subunit 14 (Homo sapiens, UniProt O00487); assay: inhibition of proteasome subunit RPN11 – biochemical, fluorescence polarization, uHTS hits, confirmation (AID 602368); format: functional
Sequence of 26S proteasome non-ATPase regulatory subunit 14 (O00487 whole entry): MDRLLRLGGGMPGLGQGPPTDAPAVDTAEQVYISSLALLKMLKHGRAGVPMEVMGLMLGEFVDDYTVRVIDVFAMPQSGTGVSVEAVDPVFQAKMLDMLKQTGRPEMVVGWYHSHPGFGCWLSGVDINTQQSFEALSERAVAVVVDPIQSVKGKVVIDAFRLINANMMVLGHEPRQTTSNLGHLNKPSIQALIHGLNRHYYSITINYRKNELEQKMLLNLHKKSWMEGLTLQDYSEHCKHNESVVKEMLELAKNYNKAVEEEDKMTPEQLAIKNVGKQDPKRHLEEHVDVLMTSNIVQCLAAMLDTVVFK

[27] = target: 72 kDa type IV collagenase (Homo sapiens, UniProt P08253); assay: Dose Response validation of uHTS RPN11 inhibitor hits using a MMP-2 Fluorescence assay.; format: functional
Prothrombin = Prothrombin (Bos taurus, UniProt P00735); assay: thrombin protease inhibitors – biochemical, fluorescence polarization, uHTS hits, dose response (AID 602369); format: functional
cells [28] = format: functional, cell-based; remark: listed apart in the source
[29] = target: T3, Nuclear receptor subfamily 0 group B member 1 (Homo sapiens, UniProt P51843); format: functional, cell-based;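 also: HEK293T cells transfected with SF-1 and DAX-1 plus StAR promoter luciferase reporter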
T3 sequence (P51843 whole entry): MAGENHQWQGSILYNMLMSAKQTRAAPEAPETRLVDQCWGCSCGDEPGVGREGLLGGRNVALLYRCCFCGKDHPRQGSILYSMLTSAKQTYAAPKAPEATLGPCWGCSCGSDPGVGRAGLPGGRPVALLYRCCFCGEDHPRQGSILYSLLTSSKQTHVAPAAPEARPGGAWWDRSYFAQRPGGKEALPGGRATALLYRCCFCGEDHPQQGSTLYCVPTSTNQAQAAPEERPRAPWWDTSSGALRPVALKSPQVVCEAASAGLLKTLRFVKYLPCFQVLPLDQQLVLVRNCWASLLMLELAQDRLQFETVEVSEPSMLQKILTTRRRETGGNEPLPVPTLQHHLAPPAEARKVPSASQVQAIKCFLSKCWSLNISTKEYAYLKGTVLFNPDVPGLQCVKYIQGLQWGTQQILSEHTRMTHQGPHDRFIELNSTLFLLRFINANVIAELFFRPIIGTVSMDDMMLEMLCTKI

[30] = A549 cell cytotoxicity, dose response, cytotoxicity control, plate reader, cherry-pick, antagonist series (AID 743412); format: functional, cell-based
[31] = toxicity toward HepG2 liver cells – cell-based, plate reader, cherry-pick, antagonist series, cytotoxicity control, dose response (AID 743416); format: functional
[32] = blockers of bursicon-stimulated LGR2 cAMP reporter – cell-based, HEK293, CRE-luciferase reporter, cherry pick, set 2, dose response (AID 743343); format: functional;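 also: transfected cells were stimulated with diluted bursicon conditioned medium after compound addition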
[33] = blockade of melanocortin 4 receptor signaling – cell-based, plate reader, cherry pick, counter-screen for LGR2 antagonist project, dose response (AID 743444); format: functional;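 also: transfected HEK 293 cells stimulated with alpha-MSH peptide; potency of inhibitors of the alpha-MSH evoked signal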
[34] = viability loss in HEK293 cells – cell-based, plate reader, cherry-picked samples, cytotoxicity control, dose response (AID 743446); format: functional
[35] = CellTiter-Glo luminescence survival assay, SW480 colon tumor line, concentration-response curve, half-maximal inhibitory concentration (AID 1117338); format: functional
[36] = RKO cell viability reduction, dose response, CellTiter-Glo luminescence (AID 1117322); format: functional
[37] = cytotoxicity toward HCT116 cells – cell-based, CellTiter-Glo luminescence, IC50, dose response (AID 1117332); format: functional; conditions: HCT-116
[38] = SNU-C1 cell viability reduction, dose response, CellTiter-Glo luminescence (AID 1117323); format: functional, cell-based
[39] = cytotoxicity toward Colo320 cells – cell-based, CellTiter-Glo luminescence, IC50, dose response (AID 1117334); format: functional; conditions: COLO 320
[40] = cytotoxicity toward HT-29 cells – cell-based, CellTiter-Glo luminescence, IC50, dose response (AID 1117330); format: functional
[41] = Reduced DLD-1 viability, concentration-response, CellTiter-Glo luminescence (AID 1117352); format: functional
Cytochrome P450 2C9 = Cytochrome P450 2C9 (Homo sapiens, UniProt P11712); conditions: Potency
Sequence of Cytochrome P450 2C9 (P11712 whole entry): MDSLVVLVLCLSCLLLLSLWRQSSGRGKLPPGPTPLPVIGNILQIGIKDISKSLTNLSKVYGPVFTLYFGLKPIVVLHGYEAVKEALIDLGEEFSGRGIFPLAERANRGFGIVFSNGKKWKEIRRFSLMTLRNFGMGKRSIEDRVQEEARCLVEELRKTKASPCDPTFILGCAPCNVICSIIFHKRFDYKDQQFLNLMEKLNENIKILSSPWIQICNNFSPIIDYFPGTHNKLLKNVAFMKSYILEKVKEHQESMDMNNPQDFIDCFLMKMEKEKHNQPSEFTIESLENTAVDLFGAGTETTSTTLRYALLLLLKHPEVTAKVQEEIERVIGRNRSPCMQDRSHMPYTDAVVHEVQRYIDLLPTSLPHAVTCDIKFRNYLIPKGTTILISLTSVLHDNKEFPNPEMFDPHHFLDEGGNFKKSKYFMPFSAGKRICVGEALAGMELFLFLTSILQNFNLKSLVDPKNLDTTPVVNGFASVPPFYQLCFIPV

N=C(N)N/N=C/c1ccccc1
EC50 [1]: < 0.1 µM (active)
EC50 [2]: > 60 µM (not active)
IC50 (cells [3]): > 29.9 µM (inactive)
EC50 [4]: > 3.32 µM (active)
IC50 [5]: 1.67 µM (active)
EC50 (cells [6]): > 29.9 µM (inactive)
EC50 (cells [7]): 0.112 µM (active)

CC1(C)N(O)CC(c2cccs2)=[N+]1[O-]
IC50 [8]: > 100 µM (not active)

c1ccc(-n2ncc3c(NCc4ccco4)ncnc32)cc1
EC50 (cells [9]): > 350 µM (not active)
EC50 (cells [10]): > 350 µM (not active)
IC50 [11]: 60.9 µM (not active)

C[C@H]1O[C@@H](OC2CC[C@]3(C=O)[C@H]4CC[C@]5(C)[C@@H](C6=CC(=O)OC6)CC[C@]5(O)[C@@H]4CC[C@]3(O)C2)CC2OC(C)(C)OC21 (stereo partly drawn)
EC50 (BJ [12]): 1.01 µM (active)
CC50 (Vero [13]): < 0.039 µM (active)
EC50 (BJ [14]): 1.37 µM (inconclusive)
EC50 (BJ [15]): 1.28 µM (inconclusive)
EC50 [16]: 1.14 µM (active)
IC50 (Vero [17]): < 0.05 µM (active)
CC50 (Vero [18]): 0.1 µM (active)

N#Cc1ccc2c(c1)nc1ccccn12
EC50 (Kallikrein-7): > 69.6 µM (inactive)

NC(=O)C1=C[C@H](C2CCCCC2)C[C@H](OCc2ccc(CO)cc2)O1
EC50 [19]: 0.326 µM (active)
EC50 [20]: < 0.1 µM (inconclusive)
EC50 [21]: > 12 µM (not active)
EC50 [22]: 0.558 µM (active)
IC50 (Vero [17]): > 25 µM (active)

COc1ccc(/C=C(/CC(=O)NCc2ccc(Cl)cc2)c2nc3ccccc3s2)cc1
EC50 (Kallikrein-7): 2.56 µM (active)

O=C(CCN1C(=O)/C(=C\c2cccc(Br)c2)SC1=S)N1CCOCC1
CC50 (Vero [13]): 31.3 µM (active)
CC50 (Vero [18]): > 25 µM (active)

Cc1cccc(OCc2nnc(SCC(=O)NC3CCCC3)n2C)c1
IC50 [23]: 4.79 µM (active)
IC50 [24]: 6.66 µM (active)

Cc1cc(S(=O)(=O)N(Cc2ccccn2)Cc2ccco2)ccc1-n1cnnn1
IC50 (Protein Tat): > 100 µM (active)

Cc1ccc(CNC(=O)CCC2CCCN(Cc3cc4ccccc4o3)C2)o1 (stereo not drawn)
EC50 [1]: < 0.1 µM (active)
EC50 [2]: > 30 µM (not active)
CC50 [25]: 33.8 µM (active)
EC50 (cells [7]): 0.222 µM (active)

C#CCn1/c(=N/C(=O)c2cccs2)sc2cccc(OC)c21
IC50 [8]: > 100 µM (not active)
IC50 [26]: 24.9 µM (active)
IC50 [27]: > 100 µM (inactive)
IC50 (Prothrombin): > 100 µM (inactive)

c1ccc(Nc2nnc(-c3ccc4c(c3)OCO4)o2)cc1
IC50 (cells [28]): > 67.5 µM (inactive)
IC50 [29]: > 0.0926 µM (active)
AC50 [30]: 10.8 µM (active)
AC50 [31]: 12.3 µM (active)
AC50 [32]: 2.58 µM (active)
AC50 [33]: 2.76 µM (active)
AC50 [34]: 6.3 µM (active)

CCc1cccc2c3c([nH]c12)C(CC)(CC(=O)O)OCC3 (stereo not drawn) [ETODOLAC]
IC50 [35]: > 20 µM (inactive)
IC50 [36]: > 20 µM (inactive)
IC50 [37]: > 20 µM (inactive)
IC50 [38]: > 20 µM (inactive)
IC50 [39]: > 20 µM (inactive)
IC50 [40]: > 20 µM (inactive)
IC50 [41]: > 20 µM (inactive)
AC50 (Cytochrome P450 2C9): 39.8 µM (inconclusive)
